Reference: US11464802B2, “3-substituted piperidine compounds for Cbl-b inhibition, and use thereof” (Nurix Therapeutics, Inc., priority 2019, dated 2022)
pIC50: −log10 of the molar value.

Legend:
[1] = test system: primary human total T-cells; experiment: Primary human total T-cell activation: IL-2 secretion, Biological Example 2; type: cell-based; conditions: 48 hours, fold change over baseline; for fold induction at 1 µM: inhibitor 1 μM
[2] = test system: primary human total T-cells; experiment: Primary human total T-cell activation: IL-2 secretion, Biological Example 13; type: cell-based; conditions: 48 hours, fold change over baseline; for fold induction at 0.3 µM: inhibitor 0.3 μM; for fold induction at 0.3 µM / fold induction at 3 µM: Table 13-1; for fold induction at 1 µM: inhibitor 1 μM; for fold induction at 3 µM: inhibitor 3 μM
[3] = test system: primary human total T-cells; experiment: Primary human total T-cell activation: IL-2 secretion, Biological Example 9; type: cell-based; conditions: 48 hours, fold change over baseline; for fold induction at 0.3 µM: inhibitor 0.3 μM; for fold induction at 0.3 µM / fold induction at 3 µM: Table 9-1; for fold induction at 1 µM: inhibitor 1 μM; for fold induction at 3 µM: inhibitor 3 μM
[4] = target: T1, Cbl-b (Homo sapiens (Human), UniProt Q13191); experiment: Cbl-b displacement assay (Cbl-b inhibition assay), Biological Example 12; type: binding; conditions: 0.125 nM Cbl-b final concentration (Low); Table 12-1; read-out: Cbl-b IC50 (Low)
Method in brief: (§1)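 Biotinylated Avitag-Cbl-b (residues 36-427) at 0.5 nM ("High") or 0.125 nM ("Low") final was preincubated 1 h at room temperature with compound (1% DMSO) in 20 mM HEPES pH 7.5, 150 mM NaCl, 0.01% Triton X-100, 0.01% BSA, 0.5 mM TCEP. Then 150 nM BODIPY FL inhibitor probe (~EC40) plus 2 nM streptavidin-terbium, 1 h; TR-FRET 520/620 read, IC50 derived.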

[5] = test system: primary human total T-cells; experiment: Primary human total T-cell activation: CD25 surface staining, Biological Example 2; type: cell-based; conditions: 48 hours, fold change over baseline; for fold induction at 1 µM: inhibitor 1 μM
[6] = test system: primary human total T-cells; experiment: Primary human total T-cell activation: CD25 surface staining, Biological Example 13; type: cell-based; conditions: 48 hours, fold change over baseline; for fold induction at 0.3 µM: inhibitor 0.3 μM; for fold induction at 0.3 µM / fold induction at 3 µM: Table 13-1; for fold induction at 1 µM: inhibitor 1 μM; for fold induction at 3 µM: inhibitor 3 μM
[7] = target: T1, Cbl-b; experiment: Cbl-b displacement assay (Cbl-b inhibition assay), Biological Example 8; type: binding; conditions: 0.125 nM Cbl-b final concentration (Low); Table 8-1; read-out: Cbl-b IC50 (Low)
Method in brief: as §1

[8] = test system: primary human total T-cells; experiment: Primary human total T-cell activation: CD25 surface staining, Biological Example 9; type: cell-based; conditions: 48 hours, fold change over baseline; for fold induction at 0.3 µM: inhibitor 0.3 μM; for fold induction at 0.3 µM / fold induction at 3 µM: Table 9-1; for fold induction at 1 µM: inhibitor 1 μM; for fold induction at 3 µM: inhibitor 3 μM
[9] = target: T1, Cbl-b; experiment: Cbl-b displacement assay (Cbl-b inhibition assay), TR-FRET probe displacement, Biological Example 1; type: binding
Method in brief: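 TR-FRET displacement of a BODIPY FL-labelled inhibitor probe (150 nM, ~EC40) from biotin-Avitag truncated Cbl-b, detected via 2 nM streptavidin-Tb, 1 h, room temperature. Compound in 1% DMSO pre-incubated 1 h with Cbl-b at 0.5 nM (High) or 0.125 nM (Low) in 20 mM HEPES pH 7.5, 150 mM NaCl, 0.5 mM TCEP.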

[10] = test system: TC-1 cell tumor; experiment: Cbl-b inhibitor in combination with HPV16 E7 cancer vaccine in mice bearing syngeneic TC-1 tumor, Biological Example 11; type: in vivo, C57BL/6 mice; conditions: HPV16 E7 vaccine SC + Compound No. 53 180 mg/kg PO BID; TILs on day 10; percent increase relative to vaccine without Cbl-b inhibitor
Procedure: In brief, the combination therapy was tested in C57BL/6 mice bearing a syngeneic TC-1 cell tumor. TC-1 cells were derived from primary murine lung cells, which had been transfected with human papillomavirus strain 16 (HPV16) early proteins 6 and 7 (E6 and E7) and an activated human c-Ha-ras oncogene (Lin et al., Cancer Research, 56: 21-26, 1996). Either 2.5×10^4 (first study) or 5.0×10^4 (second study) TC-1 cells (obtained from Johns Hopkins University) were injected subcutaneously into the mid flank of each mouse. Tumors were allowed to grow to 50-100 mm^3 at which time the animals were randomized and treatment was begun (day 0).
The HPV16 E7 cancer vaccine (Shrimali et al., Cancer Immunol Res, 5: 755-766, 2017) included 100 μg of a synthetic peptide with the amino acid sequence of a CTL epitope of residues 49-57 of E7 ([…] set forth as SEQ ID NO:2), mixed with 20 μg of a synthetic peptide with the amino acid sequence of a Th epitope known as PADRE (aK-Cha-[…]a set for as SEQ ID NO:3, where “a” is D alanine and “Cha” is L-cyclohexylalanine) and 20 μg of a Quil-A® adjuvant marketed by Brenntag Biosector A/S, which contains purified quillaja saponins. The HPV16 E7 vaccine or Dulbecco's phosphate-buffered saline (DPBS) was administered subcutaneously (SC) on days 2 and 9 (=day 16 and day 23 post TC-1 injection). The Cbl-b inhibitor was dissolved in a suitable formulation and administered at a suitable dose level and frequency as informed by prior pharmacokinetic and tolerability studies. In initial studies, the Cbl-b inhibitor (Compound No. 53) in a suitable vehicle, or the vehicle, was administered orally (PO) at a dose of 180 mg/kg twice per day (BID) beginning on day 0 (=day 14 post TC-1 injection). In further studies, a Cbl-b inhibitor formulation was administered orally (PO) or parenterally (e.g., IV, IP, SC, or intratumorally at one to three injection sites per tumor). In addition to the test group of mice who received the combination therapy (the Cbl-b inhibitor formulation plus the HPV16 E7 vaccine), the study included control groups of mice who received: the vehicle formulation plus DPBS, the Cbl-b inhibitor formulation plus DPBS, or the vehicle formulation plus the HPV16 E7 vaccine.
Tumor size was recorded twice a week starting on day 0 (day 14 post TC-1 injection) and continued through duration of dosing until humane endpoints were reached between day 33 and day 42 (=between day 47 and day 56 post TC-1 injection). The level of response was evaluated by comparing tumor growth in the test mice versus the control mice (10 mice per group). In addition, the level of immune activation was assessed by collecting tumors for analysis of tumor infiltrating lymphocytes (TILs) on day 10 (=day 24 post TC-1 injection) in test and control mice (6 mice per group). TILs were processed for flow cytometric analysis using standard methods to determine antigen specificity, expression of cell type-specific markers, and expression of activation markers such as granzyme B, CD25, CD69, PD-1, and LAG3. In further experiments, PBMCs and/or splenocytes were also collected and processed. Augmentation of the anti-tumor immune response by the combination therapy was assessed by comparing the relative percentage of total or E7-specific (tumor antigen-specific) CD8+ T cells, and the relative levels of expression of activation markers on immune cells in mice of the test and study groups.

[11] = anti-CD3/anti-CD28 co-stimulation, inhibitor 0.3 μM
[12] = anti-CD3/anti-CD28 co-stimulation
[13] = anti-CD3/anti-CD28 co-stimulation, Table 13-1, read-out: IL-2 secretion CD3/CD28 1 μM
[14] = anti-CD3 alone, Table 13-1, read-out: IL-2 secretion CD3 1 μM
[15] = anti-CD3/anti-CD28 co-stimulation, Table 9-1, read-out: IL-2 secretion CD3/CD28 1 μM
[16] = anti-CD3 alone, Table 9-1, read-out: IL-2 secretion CD3 1 μM
[17] = anti-CD3/anti-CD28 co-stimulation, Table 13-1, read-out: CD25 staining CD3/CD28 1 μM
[18] = anti-CD3 alone, Table 13-1, read-out: CD25 staining CD3 1 μM
[19] = anti-CD3/anti-CD28 co-stimulation, Table 9-1, read-out: CD25 staining CD3/CD28 1 μM
[20] = anti-CD3 alone, Table 9-1, read-out: CD25 staining CD3 1 μM

T1 sequence (Q13191 36-427): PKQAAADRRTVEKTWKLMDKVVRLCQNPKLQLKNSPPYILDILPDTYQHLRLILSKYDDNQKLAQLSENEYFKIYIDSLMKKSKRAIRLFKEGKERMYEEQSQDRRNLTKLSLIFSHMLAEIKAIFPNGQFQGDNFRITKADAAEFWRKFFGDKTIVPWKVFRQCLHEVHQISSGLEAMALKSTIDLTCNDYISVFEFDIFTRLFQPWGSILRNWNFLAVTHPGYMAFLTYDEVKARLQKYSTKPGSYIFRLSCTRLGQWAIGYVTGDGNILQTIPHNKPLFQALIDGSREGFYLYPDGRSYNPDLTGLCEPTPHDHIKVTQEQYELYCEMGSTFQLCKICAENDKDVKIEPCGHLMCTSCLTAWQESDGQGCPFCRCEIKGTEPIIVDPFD

SMILES: CCNc1cc(C2(Cc3nncn3C)COC2)cc(N2Cc3c(cc(CN4CCC[C@H](C)C4)cc3C(F)(F)F)C2=O)n1 [Compound 44, 2-[6-(ethylamino)-4-{3-[(4-methyl-1,2,4-triazol-3-yl)methyl]oxetan-3-yl}pyridin-2-yl]-6-{[(3S)-3-methylpiperidin-1-yl]methyl}-4-(trifluoromethyl)-3H-isoindol-1-one]
- fold induction at 0.3 µM [1, 11]: > 15
- fold induction at 1 µM ([1]; anti-CD3/anti-CD28 co-stimulation, read-out: IL-2 secretion CD3/CD28 1 μM): > 15
- fold induction at 1 µM ([1]; anti-CD3 alone, read-out: IL-2 secretion CD3 1 μM): > 0.66
- fold induction at 3 µM ([1]; anti-CD3 alone, inhibitor 3 μM): > 0.66
- fold induction at 0.3 µM [2, 12]: < 10
- fold induction at 1 µM [2, 13]: < 10
- fold induction at 1 µM [2, 14]: < 0.33
- fold induction at 3 µM ([2]; anti-CD3 alone): 0.34 to 0.66
- fold induction at 0.3 µM [3, 12]: < 10
- fold induction at 1 µM [3, 15]: < 10
- fold induction at 1 µM [3, 16]: < 0.33
- fold induction at 3 µM ([3]; anti-CD3 alone): 0.34 to 0.66
- pIC50 [4]: > 9.00
- fold induction at 0.3 µM [5, 11]: > 1.39
- fold induction at 1 µM ([5]; anti-CD3/anti-CD28 co-stimulation, read-out: CD25 staining CD3/CD28 1 μM): > 1.39
- fold induction at 1 µM ([5]; anti-CD3 alone, read-out: CD25 staining CD3 1 μM): > 1.14
- fold induction at 3 µM ([5]; anti-CD3 alone, inhibitor 3 μM): > 1.14
- fold induction at 0.3 µM [6, 12]: 1.25 to 1.39
- fold induction at 1 µM [6, 17]: 1.25 to 1.39
- fold induction at 1 µM [6, 18]: 1.05 to 1.14
- fold induction at 3 µM ([6]; anti-CD3 alone): 1.05 to 1.14
- pIC50 [7]: > 9.00
- fold induction at 0.3 µM [8, 12]: 1.25 to 1.39
- fold induction at 1 µM [8, 19]: 1.25 to 1.39
- fold induction at 1 µM [8, 20]: 1.05 to 1.14
- fold induction at 3 µM ([8]; anti-CD3 alone): 1.05 to 1.14
- pIC50 ([9]; 0.125 nM Cbl-b final concentration (Low), read-out: Cbl-b activity IC50 (Low)): > 9.00
- pIC50 ([9]; Cbl-b concentration (High or Low) not given, read-out: IC50 values in the Cbl-b inhibition assay of Biological Example 1): > 9.00

SMILES: Cc1cc(C(=O)Nc2cccc(C3(Cc4nncn4C)COC3)c2)nc(C2CC2)n1 [Compound 53]
- fold induction at 0.3 µM [2, 12]: < 10
- fold induction at 1 µM [2, 13]: 11 to 15
- fold induction at 1 µM [2, 14]: 0.34 to 0.66
- fold induction at 3 µM ([2]; anti-CD3 alone): 0.34 to 0.66
- Mean increase in CD8+ T cells in TILs: % E7 positive T cells [10]: 33.7%
- Mean increase in CD8+ T cells in TILs: % Granzyme positive (E7+ T cells) [10]: 7.86%
- Mean increase in CD8+ T cells in TILs: % Granzyme positive (E7− T cells) [10]: 4.12%
- Mean increase in CD8+ T cells in TILs: % LAG3 positive (E7+ T cells) [10]: 13.49%
- Mean increase in CD8+ T cells in TILs: % LAG3 positive (E7− cells) [10]: 0.96%
- Mean increase in CD8+ T cells in TILs: % PD1 positive (E7+ T cells) [10]: 14.97%
- Mean increase in CD8+ T cells in TILs: % PD1 positive (E7− T cells) [10]: 20.23%
- fold induction at 0.3 µM [3, 12]: < 10
- fold induction at 1 µM [3, 15]: 10 to 15
- fold induction at 1 µM [3, 16]: 0.34 to 0.66
- fold induction at 3 µM ([3]; anti-CD3 alone): 0.34 to 0.66
- pIC50 [4]: < 8.30
- fold induction at 0.3 µM [6, 12]: > 1.39
- fold induction at 1 µM [6, 17]: > 1.39
- fold induction at 1 µM [6, 18]: > 1.14
- fold induction at 3 µM ([6]; anti-CD3 alone): > 1.14
- pIC50 [7]: < 8.30
- fold induction at 0.3 µM [8, 12]: > 1.39
- fold induction at 1 µM [8, 19]: > 1.39
- fold induction at 1 µM [8, 20]: > 1.14
- fold induction at 3 µM ([8]; anti-CD3 alone): > 1.14
